In ChEMBL document CHEMBL3044539, “Fungichromin: a substance from Streptomyces padanus with inhibitory effects on Rhizoctonia solani” (2003):
Values after ≈ are worked out from the molar mass of the structure shown. Active and inactive are the calls of the source. The calls are words filed in the database; no cut-off is given here.

Tests used:
Rhizoctonia solani [1] = assay: Antifungal activity against Rhizoctonia solani AG-4 RST-04 assessed as mycelial growth inhibition after 2 days; format: functional; conditions: AG-4 RST-04, 48 h
Rhizoctonia solani [2] = assay: Antifungal activity against Rhizoctonia solani AG-4 RST-04 assessed as mycelial growth inhibition at 80 to 120 ug/ml after 2 days; format: functional, organism-based

For `CCCCC[C@@H](O)[C@H]1C(=O)O[C@H](C)[C@@H](O)/C=C/C=C/C=C/C=C/C=C(\C)[C@@H](O)[C@H](O)[C@H](O)C[C@H](O)C[C@H](O)C[C@H](O)C[C@H](O)C[C@@H]1O` [PENTAMYCIN], the MIC (Rhizoctonia solani [1]) was 72 µg/mL (≈ 107 µM) and the “growth inhibition (GI)” value (Rhizoctonia solani [2]) was “Active”.
